From patent US12617752B2, “Rapidly metabolized lipid compound” (Beijing Jitai Life Sciences Ltd, priority 2023, dated 2026)

How the values were obtained:
[1] = Particle size and PDI of lipid nanoparticles by dynamic light scattering; type: physicochemical; conditions: lipid nanoparticles with luciferase mRNA; ionizable lipid/cholesterol/DSPC/DMG-PEG2000 50/38.5/10/1.5 mol%
Experimental: (§1) Lipid nanoparticles were prepared by (1) dissolving and mixing ionizable lipid compounds, cholesterol, phospholipids and polyethylene glycolated lipids in ethanol at (molar percentages) 50%, 38.5%, 10% and 1.5%, respectively; (2) dissolving the mRNA active ingredient in 25 mM sodium acetate solution (pH=4.5); (3) using an automated high-throughput microfluidic system to mix the organic phase containing the lipid mixture and the aqueous phase containing the mRNA component in the flow ratio range of 1:1 to 1:4 at a mixing speed of 10 mL/min to 18 mL/min; (4) the prepared lipid nanoparticles (N/P ratio=6) were diluted with phosphate buffer solution and the nanoparticle solutions were ultrafiltered to the original preparation volume using ultrafiltration tubes (purchased from Millipore) with a cut-off molecular weight of 30 kDa; and (5) the obtained nanoparticles were filtered through a sterile 0.2 μm filter membrane and then stored in a sealed glass vial at low temperature.
(§2) The particle size and particle size dispersity index (PDI) of the prepared lipid nanoparticles were measured using a Zetasizer Pro (purchased from Malvern Instruments Ltd) and a DynaPro NanoStar (purchased from Wyatt) dynamic light scattering instrument. The degree of RNA encapsulation by lipid nanoparticles was characterized by the Encapsulation Efficiency %, which reflects the degree of binding of lipid nanoparticles to RNA fragments. This parameter was measured by the method of Quant-it™ RiboGreen RNA Assay (purchased from Invitrogen). Lipid nanoparticle samples were diluted in TE buffer (10 mM Tris-HCl, 1 mM EDTA, pH=7.5). A portion of the sample solution was removed, to which 0.5% Triton (Triton X-100) was added, and then allowed to stand at 37° C. for 30 minutes. Immediately after the addition of RIBOGREEN® reaction solution, the fluorescence values were read on a Varioskan LUX multifunctional microplate reader (purchased from Thermofisher) at 485 nm for absorption and 528 nm for emission to give the encapsulation efficiency values.

[2] = Encapsulation efficiency of lipid nanoparticles (Quant-it RiboGreen RNA Assay); type: physicochemical; conditions: lipid nanoparticles with luciferase mRNA
Experimental: as §1, §2

C57BL/6 mice = assay: In vivo delivery of luciferase mRNA lipid nanoparticles in mice (bioluminescence imaging); conditions: intravenous, single dose 0.5 mg/kg luciferase mRNA
Experimental: The delivery effect and safety of nanoparticles encapsulated with luciferase mRNA (Trilink, L-7202) in mice were evaluated. The test mice were SPF-grade C57BL/6 mice, female, 6-8 weeks old, weighing 18-22 g, and were purchased from SPF (Beijing) Biotechnology Co., Ltd. All animals were acclimatized for more than 7 days prior to the experiment, and had free access to food and water during the experiment. The conditions include alternating light and dark for 12/12 h, the indoor temperature of 20-26° C. and the humidity of 40-70%. The mice were randomly grouped. The lipid nanoparticles encapsulated with luciferase mRNA prepared above were injected into mice by intravenous administration at a single dose of 0.5 mg/kg mRNA, and the mice were subjected to in vivo bioluminescence assay using a Small Animal In Vivo Imaging System (IVIS LUMINA III, purchased from PerkinElmer) at 6 h after administration. The assay was performed as follows: D-luciferin solution was prepared in saline at a concentration of 15 mg/mL, and each mouse was given the substrate by intraperitoneal injection. At ten minutes after administration of the substrate, the mice were anesthetized in an anesthesia chamber with isoflurane at a concentration of 2.5%. The anesthetized mice were placed in IVIS for fluorescence imaging, and data acquisition and analysis were performed on the concentrated distribution area of fluorescence.
The in vivo delivery efficiency of lipid nanoparticle carriers was expressed as the mean values of fluorescence intensity and total photon count in different animals within the same subject group, as shown in Table 5-Table 11. Higher values of fluorescence intensity and total photon count indicate higher in vivo delivery efficiency of this mRNA fragment by lipid nanoparticles. The lipid nanoparticles containing the cationic lipids of the present disclosure have good in vivo delivery efficiency.

Particle size (nm) [1] [nm] | Particle-size distribution (PDI) [1] | Encapsulation efficiency (%) [2] [%] | SMILES | Total photon count in vivo at 6 hours after administration (Total Flux) (C57BL/6 mice)
114.73 | 0.15 | 94.63 | CCCCCCCCCOC(=O)CC(C)(C)CCCCCN(CCO)CCCCCCOC(=O)OCC(CCCCCCC)CCCCCCC [45a] | 1.22E+11
100.67 | 0.10 | 95.70 | CCCCCCCCCC(=O)OCCCC(C)(C)CCCN(CCCO)CCCCCCC(=O)OCCCC(CCCCCC)CCCCCC [83b] | 1.62E+10
107.20 | 0.34 | 96.65 | CCCCCCCCCOC(=O)CCCCC(C)(C)CCN(CCO)CCCCCC(=O)OCC(CCCCCCCCC)CCCCCCCCC [69a] | 7.41E+10
125.03 | 0.42 | 91.92 | CCCCCCCCCC(=O)OCC1(CCCCCN(CCO)CCCCCCCC(=O)OC(CCCCCCCCC)CCCCCCCCC)CC1 [53b] | 1.00E+11
115.83 | 0.08 | 95.02 | CCCCCCCCCCOC(=O)OCCCCCCN(CCCCO)CCCCCC(C)(C)COC(=O)CC(CCCCCCC)CCCCCCC [30b] | 4.03E+10
129.00 | 0.10 | 83.51 | CCCCCCCCCOC(=O)OCCCCCCN(CCCO)CCCCCCC(C)(C)C(=O)OC(CCCCCCCC)CCCCCCCC [32a] | 1.24E+10
78.03 | 0.12 | 98.67 | CCCCCCCC(CCCCCCC)COC(=O)CCCCC(C)(C)CCN(CCO)CCCCCCOC(=O)OCC(CCCCCCC)CCCCCCC [50a] | 2.86E+10
98.59 | 0.16 | 93.87 | CCCCCCCCCC(=O)OCCC(C)(C)CCCCN(CCO)CCCCCCCC(=O)OCC(CCCCCCC)CCCCCCC [56b] | 8.35E+10
103.40 | 0.13 | 93.55 | CCCCCCCCCCC(=O)OCCCC(C)(C)CCCN(CCCO)CCCCCCC(=O)OCC(CCCCCCCCC)CCCCCCCCC [114b] | 4.53E+10
121.89 | 0.08 | 95.26 | CCCCCCCCCC(=O)OCC1(CCCCCN(CCCCCCCC(=O)OCC(CCCCCCC)CCCCCCC)C(=O)SCCCN(C)C)CC1 [43b] | 1.29E+10
111.90 | 0.09 | 95.87 | CCCCCCCCCOC(=O)CCCCC(C)(C)CCN(CCCCCCCC(=O)OCC(CCCCCCC)CCCCCCC)C(=O)SCCCN(C)C [61a] | 1.32E+10
124.00 | 0.23 | 90.96 | CCCCCCCCCCCSC(=O)CCCCCN(CCO)CCCCCCC(C)(C)C(=O)OC(CCCCCCCC)CCCCCCCC [53a] | 9.04E+10
92.14 | 0.17 | 95.44 | CCCCCCCCCCC(=O)OCC(C)(C)CCCCCN(CCCO)CCCCCCC(=O)OCC(CCCCCCCCC)CCCCCCCCC [85b] | 9.61E+10
109.37 | 0.035 | 87.90 | CCCCCCCCCCCOC(=O)CCCCCN(CCO)CCCCCC(C)(C)CC(=O)OC(CCCCCCCC)CCCCCCCC [19a] | 4.73E+10
112.93 | 0.15 | 92.88 | CCCCCCCCCC(=O)OCC1(CCCCCN(CCCO)CCCCCCCC(=O)OCC(CCCCCCC)CCCCCCC)CC1 [58b] | 6.17E+10
99.25 | 0.011 | 96.30 | CCCCCCCCCCOC(=O)CCCCCN(CCO)CCCCCCC(C)(C)C(=O)OC(CCCCCCC)CCCCCCC [23a] | 9.84E+10
136.43 | 0.016 | 93.52 | CCCCCCCCCOC(=O)CCCCC(C)(C)CCN(CCO)CCCCCCCC(=O)OCCC(CCCCCC)CCCCCC [27a] | 4.31E+10
91.96 | 0.12 | 95.92 | CCCCCCCCCC(=O)OCC(C)(C)CCCCCN(CCO)CCCCCCCC(=O)OC(CCCCCCCCC)CCCCCCCCC [51b] | 7.60E+10
98.01 | 0.021 | 89.36 | CCCCCCCCCCCOC(=O)CCCCCN(CCCO)CCCCCCC(C)(C)C(=O)OC(CCCCCCCC)CCCCCCCC [11a] | 2.05E+10
85.13 | 0.15 | 92.70 | CCCCCCCCCCC(=O)OCCC(C)(C)CCCCN(CCO)CCCCCCCC(=O)OCC(CCCCCCCC)CCCCCCCC [99b] | 4.78E+10
98.07 | 0.17 | 89.88 | CCCCCCCCCCCOC(=O)CCCCCN(CCO)CCCCC(C)(C)CCC(=O)OC(CCCCCCCC)CCCCCCCC [62a] | 1.20E+10
92.12 | 0.16 | 93.92 | CCCCCCCCCC(=O)OCCC(C)(C)CCCCN(CCO)CCCCCCC(=O)OCCC(CCCCCCC)CCCCCCC [102b] | 7.52E+10
126.00 | 0.10 | 81.76 | CCCCCCCCCCC(=O)OCCC(C)(C)CCCCN(CCCCO)CCCCCCCC(=O)OCC(CCCCCCCC)CCCCCCCC [101b] | 5.39E+10

SMILES | Particle size (nm) [1] [nm] | Particle-size distribution (PDI) [1] | Encapsulation efficiency (%) [2] [%] | Total photon count in vivo at 6 hours after administration (Total Flux) (C57BL/6 mice)
CCCCCCCCCOC(=O)C(C)(C)CCCCCCN(CCO)CCCCCCOC(=O)OCCC(CCCCCC)CCCCCC [41a] | 114.03 | 0.13 | 94.51 | 1.11E+11
CCCCCCCCCOC(=O)OCCCCCCN(CCCCO)CCCCCCC(C)(C)C(=O)OCCCC(CCCCC)CCCCC [39a] | 144.83 | 0.08 | 93.59 | 2.24E+10
CCCCCCCCCOC(=O)C(C)(C)CCCCCCN(CCO)CCCCCCOC(=O)OCCCC(CCCCC)CCCCC [42a] | 104.13 | 0.17 | 95.54 | 3.47E+10
CCCCCCCCCOC(=O)OCCCCCCN(CCO)CCCCCCC(C)(C)C(=O)OCCC(CCCCCC)CCCCCC [34a] | 116.67 | 0.12 | 95.73 | 3.14E+10
